Source: US4318916A, “Antibiotic PS-5 and derivatives having β-lactamase inhibitory activity and production thereof” (Sanraku-Ocean Co., Ltd., priority 1977, dated 1982)
Structures can show the parent of a compound that is named as a salt.

Assays:
[1] = system: Staphylococcus aureus Smith; test: Therapeutic activity of antibiotic PS-5 sodium salt in infected mice; type: in vivo; details: sc; male ddy mice infected i.p. with 5×10^5 cells/mouse Staphylococcus aureus Smith; subcutaneously injected soon after infection; read-out: 50% curative dose
From the text: The therapeutic activity of the antibiotic PS-5 sodium salt was studied by treating mice intraperitoneally infected with 5×10^5 cells/mouse of Staphylococcus aureus Smith. Soon after the infection, an aqueous solution of the antibiotic PS-5 sodium salt was subcutaneously injected.

[2] = system: male ddy mice; type: in vivo; details: 500 mg/kg intraperitoneally
Protocol: An aqueous solution of the antibiotic PS-5 sodium salt was intraperitoneally administered to male ddy mice (Shizuoka) at the dose of 500 mg/kg.

[3] = Solubility of antibiotic PS-5; type: physicochemical; details: sodium salt preparation of Example 9
[4] = system: Comamonas terrigena B-996; test: Disc bio-assay of antimicrobial activity, cephaloridine equivalent units; type: cell-based; details: Comamonas-cephaloridine units per mg of the final purified preparation
Protocol: The overnight culture of Comamonas terrigena B-996 on a nutrient agar slant was suspended in nutrient broth so as to give an optical cell density of 0.040 at 610 nm.
The seed suspension was added in a 1% amount to a molten agar medium containing 0.8% Kyokuto Nutrient Broth Powder (Kyokuto Pharmaceutical Industries Co.) and 1.0% Bacto-Agar (Difco Laboratories). Seven milliliters of the seeded molten agar medium were distributed in a Petri dish (9 cm in diameter) and solidified). This is defined as a Comamonas assay plate.
An 8 mm pulp disc was usually soaked with a sample solution to be assayed, left on a clean sheet of filter paper for a sufficient time to remove the excess solution and then transferred onto an assay plate. After incubation at 35° C. for 20 hours, the diameter of the observed inhibition zone was measured and compared with standard solutions of cephaloridine. The antimicrobial activity of the antibiotic PS-5 and related compounds is expressed as cephaloridine equivalent units/ml.
As well known to those skilled in the art, the assay standard curve varies to some extent, depending on the species of the test microorganisms. […]

Q: For `CCC1C(=O)N2C(C(=O)O)=C(SCCNC(C)=O)CC12` (centres unmarked) [antibiotic PS-5 sodium salt], which ED50 [1] is on record?
A: 2.45 mg/kg

Q: And the “Deaths after intraperitoneal administration” value [2]?
A: No dead was recorded

Q: And the Solubility in acetone [3]?
A: substantially insoluble

Q: What about the Solubility in water [3] of the same molecule?
A: Soluble

Q: And the Specific activity [4]?
A: 21,000 CCU/mg
